Measured values published in patent publication US20240376073A1 (Hoffmann-La Roche Inc., priority 2021, published 2024).
Where a name gives a salt, the structure may show the parent alone. Read-outs that look alike come from different tables or passages of the source.

Tested on: Acinetobacter baumannii ATCC17961
Experiment: Antimicrobial susceptibility testing: 90% growth inhibitory concentration (IC90) determination
Format: cell-based
Details: Iso-Sensitest broth, growth by OD 600 nm over 16 h, 35±2° C.
Protocol: The in vitro antimicrobial activity of the compounds was determined according to the following procedure:
The assay used a 10-points Iso-Sensitest broth medium to measure quantitatively the in vitro activity of the compounds against Acinetobacter baumannii ATCC17961.
Stock compounds in DMSO were serially twofold diluted (e.g. range from 50 to 0.097 μM final concentration) in 384 wells microtiter plates and inoculated with 49 μl the bacterial suspension in Iso-Sensitest medium to have a final cell concentration of ˜5×10^(5) CFU/ml in a final volume/well of 50 ul/well. Microtiter plates were incubated at 35±2° C.
Bacterial cell growth was determined with the measurement of optical density at λ=600 nm each 20 minutes over a time course of 16 h. Growth inhibition was calculated during the logarithmic growth of the bacterial cells with determination of the concentration inhibiting 50% (IC50) and 90% (IC90) of the growth.
Table 1 provides the […] growth inhibitory concentrations (IC90) in micromoles per liter of the compounds of present invention obtained against the strain Acinetobacter baumannii ATCC17961.

[1] = Acinetobacter baumannii ATCC17961, read-out: ATCC 17961 IC90

IC90 [1] [nM] | Compound | also measured
31 | Cn1c(-c2ccc(OC(F)F)c(F)c2F)cnc1C(=O)Nc1ccc(C(=O)N2CCN(C(=O)[C@H]3[C@@H]4C[N+](C)(CC(N)=O)C[C@@H]43)CC2)c(Cl)c1 (mixture of isomers) [Example C4, N-[4-[4-[(1R,5S)-3-(2-amino-2-oxo-ethyl)-3-methyl-3-azoniabi-cyclo[3.1.0]-hexane-6-carbonyl]-piperazine-1-carbonyl]-3-chloro-phenyl]-5-[4-(difluoro-methoxy)-2,3-difluoro-phen-yl]-1-methyl-imidazole-2-carboxamide; formate] | 
540 | Cn1c(-c2ccc(OCF)c(F)c2F)cnc1C(=O)Nc1ccc(C(=O)N2CCN(C(=O)[C@H]3[C@@H]4C[N+](C)(CC(=O)O)C[C@@H]43)CC2)c(Cl)c1 (mixture of isomers) [Example C30, 2-[(1R,5S)-6-[4-[2-chloro-4-[[5-[2,3-difluoro-4-(fluoromethoxy)phenyl]-1-meth-yl-imidazole-2-carbonyl]amino]-benzoyl]piper-azine-1-carbon-yl]-3-methyl-3-azoniabicyclo-[3.1.0]hexan-3-yl]acetic acid; 2,2,2-trifluoro-acetate] | 
 | COc1ccc(-c2cnc(C(=O)Nc3ccc(C(=O)N4CCN(C(=O)C5C[C@H](O)C[N+]5(C)C)CC4)c(Cl)c3)n2C)c(F)c1F (stereo in doubt) [Example B37, N-[3-chloro-4-[4-[(2R,4S)-4-hydroxy-1,1-dimethyl-pyrrolidin-1-ium-2-carbonyl]piperazine-1-carbonyl]phenyl]-5-(2,3-difluoro-4-methoxy-phenyl)-1-methyl-imidazole-2-carboxamide; formate] | IC90 (read-out: ATCC 17961 IC90, Acinetobacter baumannii ATCC17961, formate): 190 nM
79 | COc1ccc(-c2cnc(C(=O)Nc3ccc(C(=O)N4CCC(CC[N+](C)(C)C)CC4)c(Cl)c3)n2C)c(F)c1F [Example A1, 2-[1-[2-Chloro-4-[[5-(2,3-difluoro-4-methoxy-phenyl)-1-methyl-imidazole-2-carbonyl]amino]benzoyl]-4-piperidyl]ethyl-trimethyl-ammonium;formate] | 
340 | COc1ccc(-c2cnc(C(=O)Nc3ccc(C(=O)NCCCCC[N+](C)(C)C)c(Cl)c3)n2C)c(F)c1F [Example A2, 5-[[2-Chloro-4-[[5-(2,3-difluoro-4-methoxy-phenyl)-1-methyl-imidazole-2-carbonyl]amino]benzoyl]amino]pentyl-trimethyl-ammonium;formate] | 
160 | COc1ccc(-c2cnc(C(=O)Nc3ccc(C(=O)NCCCCC[N+](C)(C)CC(N)=O)c(Cl)c3)n2C)c(F)c1F [Example A3, (2-amino-2-oxo-ethyl)-[5-[[2-chloro-4-[[5-(2,3-difluoro-4-methoxy-phenyl)-1-methyl-imidazole-2-carbonyl]amino]benzoyl]amino]pentyl]-dimethyl-ammonium; formate] | 
210 | COc1ccc(-c2cnc(C(=O)Nc3ccc(C(=O)N4CCN(CC[N+](C)(C)CC(N)=O)CC4)c(Cl)c3)n2C)c(F)c1F [Example A4, (2-amino-2-oxo-ethyl)-[2-[4-[2-chloro-4-[[5-(2,3-difluoro-4-methoxy-phenyl)-1-methyl-imidazole-2-carbonyl]amino]benzoyl]piperazin-1-yl]ethyl]-dimethyl-ammonium; formate] | 
460 | CCc1cc(NC(=O)c2ncc(-c3ccc(OC)c(F)c3F)n2C)ccc1C(=O)NCCOCC[N+](C)(C)C [Example A5, 2-(2-(4-(5-(2,3-difluoro-4-methoxyphenyl)-1-methyl-1H-imidazole-2-carboxamido)-2-ethylbenzamido)ethoxy)-N,N,N-trimethylethan-1-aminium iodide] | 
1500 | CCc1cc(NC(=O)c2ncc(-c3ccc(OC)c(F)c3F)n2C)ccc1C(=O)N1CCN(CCC[N+](C)(C)C)CC1 [Example A6, 3-(4-(4-(5-(2,3-difluoro-4-methoxyphenyl)-1-methyl-1H-imidazole-2-carboxamido)-2-ethylbenzoyl)piperazin-1-yl)-N,N,N-trimethylpropan-1-aminium iodide] | 
 | Cn1c(-c2ccc(OCC#N)c(F)c2F)cnc1C(=O)Nc1ccc(C(=O)N2CCN(C(=O)C[N+](C)(C)C)CC2)c(Cl)c1 [Example A7, [2-[4-[2-chloro-4-[[5-[4-(cyanomethoxy)-2,3-difluoro-phenyl]-1-methyl-imidazole-2-carbonyl]amino]benzoyl]piperazin-1-yl]-2-oxo-ethyl]-trimethyl-ammonium; formate; iodide] | IC90 (Acinetobacter baumannii, ATCC17961, 16 h, read-out: ATCC 17961 IC90, Acinetobacter baumannii ATCC17961): 93 nM
310 | Cc1cc(NC(=O)c2ncc(-c3ccc(OCC#N)c(F)c3F)n2C)ccc1C(=O)N1CCN(C(=O)C[N+](C)(C)C)CC1 [Example A8, [2-[4-[4-[[5-[4-(cyanomethoxy)-2,3-difluoro-phenyl]-1-methyl-imidazole-2-carbonyl]amino]-2-methyl-benzoyl]piperazin-1-yl]-2-oxo-ethyl]-trimethyl-ammonium; iodide] | 
130 | COc1ccc(-c2cnc(C(=O)Nc3ccc(C(=O)N4CCN(CC[N+](C)(C)C)CC4)c(Cl)c3)n2C)c(F)c1F [Example A9, 2-[4-[2-chloro-4-[[5-(2,3-difluoro-4-methoxy-phenyl)-1-methyl-imidazole-2-carbonyl]amino]benzoyl]piperazin-1-yl]ethyl-trimethyl-ammonium; iodide] | 
84 | COc1ccc(-c2cnc(C(=O)Nc3ccc(C(=O)N[C@H]4C[C@@H](NC(=O)C[N+](C)(C)C)C4)c(Cl)c3)n2C)c(F)c1F [Example A10, [2-[[3-[[2-Chloro-4-[[5-(2,3-difluoro-4-methoxy-phenyl)-1-methyl-imidazole-2-carbonyl]amino]benzoyl]amino]cyclobutyl]amino]-2-oxo-ethyl]-trimethyl-ammonium formate] | 
570 | COc1ccc(-c2cnc(C(=O)Nc3ccc(C(=O)N[C@H]4C[C@@H](NCC[N+](C)(C)C)C4)c(Cl)c3)n2C)c(F)c1F [Example A11, 2-[[3-[[2-chloro-4-[[5-(2,3-difluoro-4-methoxy-phenyl)-1-methyl-imidazole-2-carbonyl]amino]benzoyl]amino]cyclobutyl]amino]ethyl-trimethyl-ammonium; formic acid; formate] | 
350 | Cn1c(-c2ccc(OCC#N)c(F)c2F)cnc1C(=O)Nc1ccc(C(=O)NCCCNC(=O)C[N+](C)(C)C)c(Cl)c1 [Example A12, [2-[3-[[2-chloro-4-[[5-[4-(cyanomethoxy)-2,3-difluoro-phenyl]-1-methyl-imidazole-2-carbonyl]amino]benzoyl]amino]propylamino]-2-oxo-ethyl]-trimethyl-ammonium formate] | 
640 | Cn1c(-c2ccc(OCC#N)c(F)c2F)cnc1C(=O)Nc1ccc(C(=O)NCCOCC[N+](C)(C)CC(N)=O)c(Cl)c1 [Example A13, (2-amino-2-oxo-ethyl)-[2-[2-[[2-chloro-4-[[5-[4-(cyanomethoxy)-2,3-difluoro-phenyl]-1-methyl-imidazole-2-carbonyl]amino]benzoyl]amino]ethoxy]ethyl]-dimethyl-ammonium formate] | 
600 | Cn1c(-c2ccc(OCC#N)c(F)c2F)cnc1C(=O)Nc1ccc(C(=O)NCCNC(=O)C[N+](C)(C)C)c(Cl)c1 [Example A14, [2-[2-[2-chloro-4-[[5-[4-(cyanomethoxy)-2,3-difluoro-phenyl]-1-methyl-imidazole-2-carbonyl]amino]benzoyl]amino]ethylamino]-2-oxo-ethyl]-trimethyl-ammonium formate] | 
